{"source": "patent US11583570B2", "about": "“Use of autoinducer-related pathway in inducing apoptosis and anti-infective therapy” (TSINGHUA UNIVERSITY, priority 2017, dated 2023)", "key": {"[1]": {"tested_on": "RAW264.7 cells", "assay": "Phagocytosis assay", "format": "cell-based", "procedure": "For Phagocytic assay, polystyrene beads were coated with BSA plus mouse anti-BSA Ab via commercial methods. Before experiment, RAW264.7 cells were cultured on clean glass slices in 24-hole plate with Opti-MEM. Cells were co-cultured with coated beads, centrifuged at 900 g, 4° C. for 5 min and cultured at 37° C. for 45 min. Then cells were fixed with 4% paraformaldehyde and stained with 488 nm anti-mouse fluorescent Ab for immunofluorescent imaging. For analysis, total number of beads on each cell was calculated under bright field, the number of beads which were not engulfed were calculated under fluorescent lighting."}, "[2]": {"tested_on": "EGFR", "assay": "EGFR phosphorylation", "format": "cell-based", "settings": "in the absence of the ligand"}, "[3]": {"target": "T1, TNFR1 (1-293) mutant (Homo sapiens, UniProt P19438)", "T1 construct": "human TNFR1 (1-293) mutant was amplified from human TNFR1 with specific primers and cloned into peGFP-N1 vector; expressed in transfected cells; host or cells: HeLa cells", "T1 sequence (P19438 30-293)": "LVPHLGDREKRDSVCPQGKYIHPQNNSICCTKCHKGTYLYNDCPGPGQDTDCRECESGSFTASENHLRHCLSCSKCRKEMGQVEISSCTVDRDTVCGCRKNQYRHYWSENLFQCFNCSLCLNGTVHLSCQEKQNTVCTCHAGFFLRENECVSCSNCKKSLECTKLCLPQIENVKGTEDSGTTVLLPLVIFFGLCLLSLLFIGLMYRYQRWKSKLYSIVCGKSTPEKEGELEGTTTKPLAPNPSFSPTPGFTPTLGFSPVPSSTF", "assay": "Single molecule photo-bleaching step counting (MSFQ), TNFR1 in HELA cells", "format": "cell-based", "settings": "DD-deleted TNFR1-eGFP", "from_the_text": "Then the cells were stimulated with HSLs, TNF α, or left untreated, and washed twice with PBS and fixed with 4% paraformaldehyde before imaging. GFP was excited at 488 nm with a laser power of 5 mW measured after the laser passing through the objective. […] The EM gain of the EMCCD camera was set at 300. Movies of 400 frames were acquired for each sample at a full-frame rate of 10 Hz. For imaging analysis, the background fluorescence was firstly subtracted from the movie acquired from the fixed cells using the rolling ball method in Image J software, and regions of interest on movies were selected manually according to the outline of cells. To analyze the bleaching steps, the fluorescence time courses of each fluorescent spots were first constructed by Image J plugin and bleaching steps were then counted manually."}, "[4]": {"tested_on": "primary T cell and T cell line", "assay": "T cell activation (IL-2 release, CD69 expression)", "format": "cell-based, mouse", "settings": "induced by MHC class I and class II-restricted antigens or PMA plus ionophore", "procedure": "(§1) Cell apoptosis was detected with Annexin V/PI apoptosis detection Kit. Briefly, cells were stimulated with HSLs or left untreated. 6 hrs later, cells were collected and stained with Annexin VFITC and PI for 15 min at RT, then the apoptotic effect was measured by flow cytometry. OT-I or OT-II splenocytes were pulsed with specific peptides or PMA and ionomycin mixture with or without HSLs or TNF α plus cycloheximide. 24 hrs later, cells and supernatants were collected separately. For OT-I activation, cells were stained with CD69 and CD8. For OT-II activation, cells were stained with CD69 and CD4. Cell activation was measured by flow cytometry. All supernatants were detected for IL-2 secretion by ELISA."}, "[5]": {"tested_on": "thioglycolate-induced macrophages", "assay": "Annexin V/PI apoptosis detection, macrophages", "format": "cell-based", "procedure": "as §1"}}, "data": [{"smiles": "CCCCCCCCCC(=O)CC(=O)N[C@H]1CCOC1=O", "note": "[3OC12 HSL, N-(3-oxo-dodecanoyl) homoserine lactone]", "values": [{"measurement": "attachment of beads to cells", "setting": "[1]", "value": "not affected"}, {"measurement": "phagocytosis of antibody-coated latex beads", "setting": "[1]; without 3OC12 HSL 4.6", "value": "2.6+/−0.2%"}, {"measurement": "EGFR phosphorylation", "setting": "[2]", "value": "became detectable"}, {"measurement": "three step bleaching frequency", "setting": "[3]; untreated 7.1", "value": "17.0+/−1.3%"}, {"measurement": "one step bleaching frequency", "setting": "[3]; untreated 60.0", "value": 47.1, "unit": "%"}, {"measurement": "T cell activation measured by IL-2 release and CD69 expression", "setting": "[4]", "value": "suppress"}, {"measurement": "sensitivity to 3OC12 HSL", "setting": "[5]", "value": "relatively resistant"}]}]}
